From patent US20260216239A1 (Arizona Board of Regents on Behalf of the University of …, priority 2020, published 2026)
“Also recorded” adds a separate entry of the source.

How the values were obtained:
Bothrops moojeni venom = assay: Thrombelastography in human plasma of venom procoagulant activity after isolated exposure of venom to compounds; assay type: biochemical; details: venom 2 μg/ml in plasma; for procoagulant activity of venom: venom exposed ≥5 min in PBS to 1 mM CORM-2, 100 μM RuCl3 or both, vs venom alone
Method: (§1) Thrombelastographic analyses. The volumes of subsequently described plasmatic and other additives summed to a final volume of 360 μl. Samples were composed of 320 μl of plasma; 16.4 μl of PBS, 20 μl of 200 mM CaCl2), and 3.6 μl of PBS or venom mixture, which were pipetted into a disposable cup in a Thrombelastograph® hemostasis system (Model 5000, Haemonetics Inc., Braintree, MA, USA) at 37° C., and then rapidly mixed by moving the cup up against and then away from the plastic pin five times. The following viscoelastic parameters described previously (see, Nielsen V G (2019) J Thromb Thrombolysis 47, 73-79; Gessner G, et al., (2017) Eur J Pharmacol 815, 33-41; Nielsen V G, Wagner M T, Frank N (2020) Int J Mol Sci 21, 2082; Lazić D, Arsenijević A, Puchta R, Bugarčić ŽD, Rilak A (2016) Dalton Trans 45, 4633; Hanif M, et al., (2017) ChemPlusChem 82, 841-847) were measured: time to maximum rate of thrombus generation (TMRTG): this is the time interval (minutes) observed prior to maximum speed of clot growth; maximum rate of thrombus generation (MRTG): this is the maximum velocity of clot growth observed (dynes/cm^2/second); and total thrombus generation (TTG, dynes/cm^2), the final viscoelastic resistance observed after clot formation.
(§2) B. moojeni. This venom was exposed to 0 or 1 mM CORM-2 in the presence of 0 or 100 μM RuCl3 in PBS for at least 5 minutes at room temperature prior to placement into plasma followed immediately with commencement of thrombelastographic analysis. The final concentration of this venom in plasma was 2 μg/ml.
(§3) Given the aforementioned, the experimental conditions utilized were: 1) V condition—venom in PBS; 2) Ru(II) condition—venom exposed to CORM-2; 3) Ru(III) condition—venom exposed to RuCl3; 4) Ru(II+III) condition—venom exposed to CORM-2 and RuCl3 simultaneously. After the 5 minute period at room temperature, 3.6 μl of one of these solutions was added to the plasma sample in the plastic thrombelastograph cup.
(§4) The volumes of subsequently described plasmatic and other additives summed to a final volume of 360 μl. Samples were composed of 320 μl of plasma; 16.4 μl of PBS, 20 μl of 200 mM CaCl2), and 3.6 μl of PBS or venom mixture, which were pipetted into a disposable cup in a Thrombelastograph® hemostasis system (Model 5000, Haemonetics Inc., Braintree, MA, USA) at 37° C., and then rapidly mixed by moving the cup up against and then away from the plastic pin five times. The following viscoelastic parameters described previously (see, Nielsen, V. G. J Thromb Thrombolysis 2019, 47, 73-79; Gessner, G.; et al., Eur J Pharmacol 2017, 815, 33-41; Nielsen, V. G.; Wagner, M. T.; Frank, N. Int J Mol Sci 2020, 21, 2082; Lazid, D.; et al., Dalton Trans 2016, 45, 4633; Hanif, M.; et al., ChemPlusChem 2017, 82, 841-847) were measured: time to maximum rate of thrombus generation (TMRTG): this is the time interval (minutes) observed prior to maximum speed of clot growth; maximum rate of thrombus generation (MRTG): this is the maximum velocity of clot growth observed (dynes/cm2/second); and total thrombus generation (TTG, dynes/cm2), the final viscoelastic resistance observed after clot formation.
as §2, with “CORM-2 or CORM-3” for “CORM-2”, “analysis. This venom was also exposed to 0 or 1 mM CORM-2 in the presence of 0 or 100 μM carboplatin in another series of experiments.” for “analysis.”
Given the aforementioned, the experimental conditions utilized were: 1) V condition—venom in PBS; 2) Ru(II) condition—venom exposed to CORM-2 or CORM-3; 3) Ru(III) condition—venom exposed to RuCl3; 4) Ru(II+III) condition—venom exposed to CORM-2 or CORM-3 and RuCl3 simultaneously; 5) Pt(II) condition—venom exposed to carboplatin; and 6) Pt+Ru condition—venom exposed to carboplatin and CORM-2.

[1] = test system: Calloselasma rhodostoma venom; assay: as above; assay type: biochemical; details: venom 5 μg/ml in plasma
Method: as §1
C. rhodostoma. […] The final concentration of this venom in plasma was 5 μg/ml.
as §3, §4
C. rhodostoma. […] This venom was also exposed to 0 or 100 μM CORM-2 in the presence of 0 or 100 μM carboplatin in another series of experiments. The final concentration of this venom in plasma was 5 μg/ml.

[2] = 100 μM carboplatin, 1 mM CORM-2 or both
[3] = 1 mM CORM-2, 100 μM RuCl3 or both
[4] = 50 μM CORM-2, 50 μM RuCl3 or both
[5] = 100 μM carboplatin, 100 μM CORM-2 or both
[6] = venom exposed ≥5 min in PBS to 50 μM CORM-2, 50 μM RuCl3 or both
[7] = 1 mM CORM-3, 100 μM RuCl3 or both
[8] = venom exposed ≥5 min in PBS to 1 mM CORM-3, 100 μM RuCl3 or both
[9] = 100 μM CORM-3, 100 μM RuCl3 or both

| Molecule | maximum rate of thrombus generation (MRTG) (Bothrops moojeni venom; [2]) | time to maximum rate of thrombus generation (TMRTG) (Bothrops moojeni venom; [2]) | maximum rate of thrombus generation (MRTG) (Bothrops moojeni venom; [3]) | time to maximum rate of thrombus generation (TMRTG) (Bothrops moojeni venom; [3]) | procoagulant activity of venom (Bothrops moojeni venom) | maximum rate of thrombus generation (MRTG) [1, 4] | time to maximum rate of thrombus generation (TMRTG) [1, 4] | maximum rate of thrombus generation (MRTG) [1, 5] | time to maximum rate of thrombus generation (TMRTG) [1, 5] | total thrombus generation (TTG) [1, 5] | procoagulant activity of venom [1, 6] | maximum rate of thrombus generation (MRTG) (Bothrops moojeni venom; [7]) | total thrombus generation (TTG) (Bothrops moojeni venom; [7]) | time to maximum rate of thrombus generation (TMRTG) (Bothrops moojeni venom; [8]) | maximum rate of thrombus generation (MRTG) [1, 9] | time to maximum rate of thrombus generation (TMRTG) [1, 9] | procoagulant activity of venom [1, 9] |
| --- | --- | --- | --- | --- | --- | --- | --- | --- | --- | --- | --- | --- | --- | --- | --- | --- | --- |
| [C-]#[O+].[C-]#[O+].[C-]#[O+].[C-]#[O+].[C-]#[O+].[C-]#[O+].[Cl][Ru][Cl].[Cl][Ru][Cl] [CORM-2, tricarbonyldichlororuthenium(II) dimer] | decreased | significantly increased | decrease | prolonged; also recorded: significant increase | significant loss of activity; also recorded: inhibition of procoagulant activity | decrease | increased; also recorded: significant increase | decrease | significant increase | decrease | significantly decreased; also recorded: procoagulant activity inhibition | – | – | – | – | – | – |
| [Cl][Ru]([Cl])[Cl] [RuCl3, ruthenium(III) chloride] | – | – | – | – | no significant effect; also recorded: did not significantly diminish | decrease | increase | – | – | – | significantly diminished | did not significantly change | significantly increased | significant increase | decrease | significant increase | – |
| Tricarbonylchloro(glycinato)ruthenium [CORM-3] | – | – | – | – | – | – | – | – | – | – | – | did not significantly change | significantly increased | significant increase | – | – | no significant effect |
